Test results from PubChem BioAssay (NCI).
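These data come from cells grown in 96-well plates and exposed to compound for 48 hours at five concentrations. Here, GI50 denotes the concentration required for 50% inhibition of growth. TGI marks complete inhibition of growth.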

Key:
Assay in all cases: inhibition of tumour cell growth, NCI panel, 48 h
DU-145 prostate = tested on: DU-145 prostate
SW-620 colon = tested on: SW-620 colon
CAKI-1 renal = tested on: CAKI-1 renal
HS 578T breast = tested on: HS 578T breast
KM12 colon = tested on: KM12 colon
SN12C renal = tested on: SN12C renal
MDA-MB-468 breast = tested on: MDA-MB-468 breast
SF-539 CNS = tested on: SF-539 CNS
OVCAR-3 ovarian = tested on: OVCAR-3 ovarian
CCRF-CEM leukemia = tested on: CCRF-CEM leukemia
SK-MEL-28 melanoma = tested on: SK-MEL-28 melanoma
K-562 leukemia = tested on: K-562 leukemia
786-0 renal = tested on: 786-0 renal
SNB-75 CNS = tested on: SNB-75 CNS
MALME-3M melanoma = tested on: MALME-3M melanoma
SNB-19 CNS = tested on: SNB-19 CNS
SK-MEL-5 melanoma = tested on: SK-MEL-5 melanoma
TK-10 renal = tested on: TK-10 renal
HCT-116 colon = tested on: HCT-116 colon
UACC-257 melanoma = tested on: UACC-257 melanoma
NCI-H460 lung = tested on: NCI-H460 lung
MDA-MB-435 = tested on: MDA-MB-435
A498 renal = tested on: A498 renal
NCI-H522 lung = tested on: NCI-H522 lung
HCC-2998 colon = tested on: HCC-2998 colon
OVCAR-5 ovarian = tested on: OVCAR-5 ovarian
HOP-62 NSCLC = tested on: HOP-62 NSCLC
ACHN renal = tested on: ACHN renal
SK-MEL-2 melanoma = tested on: SK-MEL-2 melanoma
NCI-H226 lung = tested on: NCI-H226 lung
MOLT-4 leukemia = tested on: MOLT-4 leukemia
UO-31 renal = tested on: UO-31 renal
HT29 colon = tested on: HT29 colon
COLO 205 colon = tested on: COLO 205 colon
HCT-15 colon = tested on: HCT-15 colon
UACC-62 melanoma = tested on: UACC-62 melanoma
OVCAR-8 ovarian = tested on: OVCAR-8 ovarian
MDA-MB-231 breast = tested on: MDA-MB-231 breast
PC-3 prostate = tested on: PC-3 prostate
RPMI-8226 leukemia = tested on: RPMI-8226 leukemia
NCI/ADR-RES ovarian = tested on: NCI/ADR-RES ovarian
LOX IMVI melanoma = tested on: LOX IMVI melanoma
OVCAR-4 ovarian = tested on: OVCAR-4 ovarian
MCF7 breast = tested on: MCF7 breast
M14 melanoma = tested on: M14 melanoma
RXF 393 renal = tested on: RXF 393 renal
U251 CNS = tested on: U251 CNS
IGROV1 ovarian = tested on: IGROV1 ovarian
SK-OV-3 ovarian = tested on: SK-OV-3 ovarian
EKVX NSCLC = tested on: EKVX NSCLC
HOP-92 NSCLC = tested on: HOP-92 NSCLC
SF-268 CNS = tested on: SF-268 CNS
SR leukemia = tested on: SR leukemia
HL-60(TB) leukemia = tested on: HL-60(TB) leukemia
BT-549 breast = tested on: BT-549 breast
SF-295 CNS = tested on: SF-295 CNS
T-47D breast = tested on: T-47D breast
A549 NSCLC = tested on: A549 NSCLC
NCI-H23 lung = tested on: NCI-H23 lung

Compound: O=C(NO)c1ccc(CN2CCN(c3nc(-c4ccccc4)c4ccccc4n3)CC2)cc1
- GI50 (DU-145 prostate): 5.63 µM
- TGI (DU-145 prostate): 17 µM
- GI50 (SW-620 colon): 4.8 µM
- TGI (SW-620 colon): 15.1 µM
- GI50 (CAKI-1 renal): 5.15 µM
- TGI (CAKI-1 renal): 20.2 µM
- GI50 (HS 578T breast): 7.85 µM
- TGI (HS 578T breast): > 23.7 µM
- GI50 (KM12 colon): 7.77 µM
- TGI (KM12 colon): > 23.7 µM
- GI50 (SN12C renal): 5.65 µM
- TGI (SN12C renal): 19.4 µM
- GI50 (MDA-MB-468 breast): 2740 nM
- TGI (MDA-MB-468 breast): 7.23 µM
- GI50 (SF-539 CNS): 3.97 µM
- TGI (SF-539 CNS): 7.92 µM
- GI50 (OVCAR-3 ovarian): 4.32 µM
- TGI (OVCAR-3 ovarian): 15.1 µM
- GI50 (CCRF-CEM leukemia): 2890 nM
- TGI (CCRF-CEM leukemia): > 23.7 µM
- GI50 (SK-MEL-28 melanoma): 6.83 µM
- TGI (SK-MEL-28 melanoma): > 23.7 µM
- GI50 (K-562 leukemia): 5.8 µM
- TGI (K-562 leukemia): > 23.7 µM
- GI50 (786-0 renal): 5.81 µM
- TGI (786-0 renal): 19.1 µM
- GI50 (SNB-75 CNS): 3.76 µM
- TGI (SNB-75 CNS): > 23.7 µM
- GI50 (MALME-3M melanoma): 5.2 µM
- TGI (MALME-3M melanoma): 18.3 µM
- GI50 (SNB-19 CNS): 6.27 µM
- TGI (SNB-19 CNS): > 23.7 µM
- GI50 (SK-MEL-5 melanoma): 3.67 µM
- TGI (SK-MEL-5 melanoma): 6.91 µM
- GI50 (TK-10 renal): 7.04 µM
- TGI (TK-10 renal): > 23.7 µM
- GI50 (HCT-116 colon): 2950 nM
- TGI (HCT-116 colon): 20.2 µM
- GI50 (UACC-257 melanoma): 6.94 µM
- TGI (UACC-257 melanoma): > 23.7 µM
- GI50 (NCI-H460 lung): 3.66 µM
- TGI (NCI-H460 lung): 8.5 µM
- GI50 (MDA-MB-435): 6.64 µM
- TGI (MDA-MB-435): > 23.7 µM
- GI50 (A498 renal): 8.03 µM
- TGI (A498 renal): > 23.7 µM
- GI50 (NCI-H522 lung): 4.57 µM
- TGI (NCI-H522 lung): 14.1 µM
- GI50 (HCC-2998 colon): 4.03 µM
- TGI (HCC-2998 colon): 9.97 µM
- GI50 (OVCAR-5 ovarian): 4.61 µM
- TGI (OVCAR-5 ovarian): 12.4 µM
- GI50 (HOP-62 NSCLC): 8.88 µM
- TGI (HOP-62 NSCLC): > 23.7 µM
- GI50 (ACHN renal): 4.06 µM
- TGI (ACHN renal): 10.2 µM
- GI50 (SK-MEL-2 melanoma): 7.78 µM
- TGI (SK-MEL-2 melanoma): > 23.7 µM
- GI50 (NCI-H226 lung): 4.09 µM
- TGI (NCI-H226 lung): 13.3 µM
- GI50 (MOLT-4 leukemia): 5.59 µM
- TGI (MOLT-4 leukemia): > 23.7 µM
- GI50 (UO-31 renal): 3000 nM
- TGI (UO-31 renal): 7.24 µM
- GI50 (HT29 colon): 5.75 µM
- TGI (HT29 colon): > 23.7 µM
- GI50 (COLO 205 colon): 5.13 µM
- TGI (COLO 205 colon): 12.3 µM
- GI50 (HCT-15 colon): 1080 nM
- TGI (HCT-15 colon): 7.77 µM
- GI50 (UACC-62 melanoma): 3.74 µM
- TGI (UACC-62 melanoma): 8.28 µM
- GI50 (OVCAR-8 ovarian): 4.78 µM
- TGI (OVCAR-8 ovarian): 12.9 µM
- GI50 (MDA-MB-231 breast): 3.4 µM
- TGI (MDA-MB-231 breast): 11 µM
- GI50 (PC-3 prostate): 4.18 µM
- TGI (PC-3 prostate): > 23.7 µM
- GI50 (RPMI-8226 leukemia): 5.6 µM
- TGI (RPMI-8226 leukemia): > 23.7 µM
- GI50 (NCI/ADR-RES ovarian): 3.24 µM
- TGI (NCI/ADR-RES ovarian): 7.86 µM
- GI50 (LOX IMVI melanoma): 2970 nM
- TGI (LOX IMVI melanoma): 6.12 µM
- GI50 (OVCAR-4 ovarian): 4.3 µM
- TGI (OVCAR-4 ovarian): > 23.7 µM
- GI50 (MCF7 breast): 4.4 µM
- TGI (MCF7 breast): 23.4 µM
- GI50 (M14 melanoma): 6.26 µM
- TGI (M14 melanoma): > 23.7 µM
- GI50 (RXF 393 renal): 2900 nM
- TGI (RXF 393 renal): 8.53 µM
- GI50 (U251 CNS): 6.19 µM
- TGI (U251 CNS): > 23.7 µM
- GI50 (IGROV1 ovarian): 4.55 µM
- TGI (IGROV1 ovarian): 11 µM
- GI50 (SK-OV-3 ovarian): 5.61 µM
- TGI (SK-OV-3 ovarian): 13.5 µM
- GI50 (EKVX NSCLC): 4.94 µM
- TGI (EKVX NSCLC): 11.8 µM
- GI50 (HOP-92 NSCLC): 5.02 µM
- TGI (HOP-92 NSCLC): 21.6 µM
- GI50 (SF-268 CNS): 6.59 µM
- TGI (SF-268 CNS): 20.7 µM
- GI50 (SR leukemia): > 23.7 µM
- TGI (SR leukemia): > 23.7 µM
- GI50 (HL-60(TB) leukemia): 6.99 µM
- TGI (HL-60(TB) leukemia): > 23.7 µM
- GI50 (BT-549 breast): 8.64 µM
- TGI (BT-549 breast): > 23.7 µM
- GI50 (SF-295 CNS): 4.5 µM
- TGI (SF-295 CNS): 11 µM
- GI50 (T-47D breast): 6.05 µM
- TGI (T-47D breast): 23.2 µM
- GI50 (A549 NSCLC): 4.57 µM
- TGI (A549 NSCLC): 11.5 µM
- GI50 (NCI-H23 lung): 3.67 µM
- TGI (NCI-H23 lung): 7.89 µM
